For orientation: IC50 means the concentration that gives 50% inhibition.

What all share (format): cell-based
Experiment [1] has as its target T1, AHR (Homo sapiens, UniProt P35869).
T1 sequence (P35869 11-848): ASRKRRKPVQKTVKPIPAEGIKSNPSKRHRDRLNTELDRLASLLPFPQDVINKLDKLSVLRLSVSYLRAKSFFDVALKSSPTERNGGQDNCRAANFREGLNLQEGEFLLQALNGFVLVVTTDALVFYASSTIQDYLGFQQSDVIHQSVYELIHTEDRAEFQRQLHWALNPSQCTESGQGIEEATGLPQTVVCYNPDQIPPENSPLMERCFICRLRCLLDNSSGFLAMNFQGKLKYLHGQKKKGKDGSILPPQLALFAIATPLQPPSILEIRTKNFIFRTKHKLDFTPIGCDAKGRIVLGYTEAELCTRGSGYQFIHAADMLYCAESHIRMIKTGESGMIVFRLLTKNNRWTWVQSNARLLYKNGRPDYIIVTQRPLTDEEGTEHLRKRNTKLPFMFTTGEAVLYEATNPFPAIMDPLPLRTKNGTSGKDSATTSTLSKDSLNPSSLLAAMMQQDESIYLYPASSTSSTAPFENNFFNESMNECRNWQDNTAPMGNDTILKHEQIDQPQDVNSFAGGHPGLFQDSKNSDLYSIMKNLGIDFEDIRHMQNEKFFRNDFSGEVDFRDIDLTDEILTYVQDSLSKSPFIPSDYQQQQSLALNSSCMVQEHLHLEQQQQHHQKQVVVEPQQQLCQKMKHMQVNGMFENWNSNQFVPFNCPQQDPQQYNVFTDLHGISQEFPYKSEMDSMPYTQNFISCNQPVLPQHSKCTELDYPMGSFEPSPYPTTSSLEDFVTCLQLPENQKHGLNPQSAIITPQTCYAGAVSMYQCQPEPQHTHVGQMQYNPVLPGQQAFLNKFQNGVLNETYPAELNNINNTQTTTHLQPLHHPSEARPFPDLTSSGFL
Briefly: In vitro assay 3: AHR-regulated CYP1A1 expression in human cell line (U937, qPCR, KA stimulation). The note with it: U937 cells, 200 uM KA, 6 hours, CYP1A1 expression by qPCR; read-out: Assay 3: Hum CYP1A1 Antagonism IC50. Here is the method:
In Vitro Assay 3: AHR-Regulated CYP1A1 Expression in Human Cell Line
To assess the AHR inhibitory activity of the substances described in this application, the ability thereof to antagonise ligand-induced AHR gene regulation in a dose-dependent manner was quantified. For this purpose, quantitative PCR analysis was used to determine expression of the AHR-regulated gene CYP1A1 in a human monocytic U937 cell line upon stimulation with 200 uM KA in the presence and absence of AHR inhibitor. […] CYP1A1 expression was induced with 200 uM KA (positive control) in the presence or absence of the substances for 6 hours. Human U937 cells were typically incubated with eight different concentrations of the substances (1 nM, 3 nM, 10 nM, 30 nM, 100 nM, 300 nM, 1 uM and 3 uM) and analyzed in duplicate on the same microtitre plate. […] Unstimulated cells were used as the negative control. Taqman probes for human CYP1A1 (Hs01054797_g1) and human HPRT (Hs02800695_m1) were used to analyze fold expression of CYP1A1 of HPRT. Quantitation was performed on a Taqman SDS7900HT.
A general note: Quantitative PCR measures a nucleic acid by following its amplification.

For experiment [2], the target named is T1, AHR. Briefly: In vitro assay 1: antagonism in human cell line (transactivation assay, U87 cells prestimulated with kynurenic acid, DRE firefly luciferase reporter). Particulars: 150 uM kynurenic acid, 20 hours, read-out: Assay 1: AHR-luc Hum Antagonism IC50. Also on record: host or cells: U87 glioblastoma cells, stably transfected with DRE firefly luciferase and renilla reporter constructs. A digest of the protocol:
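Antagonism measured after kynurenic acid prestimulation in U87 cells that express AHR endogenously and stably harbor a firefly luciferase gene under DRE control plus a constitutive renilla construct. Positive and negative controls served for normalization.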

The target in experiment [3] is T1, AHR. Kind of experiment: In vitro assay 2: agonism in human cell line (transactivation assay, U87 cells, DRE firefly luciferase reporter). Details: host or cells: U87 glioblastoma cells, stably transfected with DRE firefly luciferase and renilla reporter constructs. The note with it: no kynurenic acid, 20 hours, read-out: Assay 2: AHR-luc Hum Agonism IC50. The essentials:
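Agonist readout: DRE firefly luciferase, with constitutive renilla reporter, in stably transfected U87 cells expressing AHR endogenously. Normalization used positive control (300 uM kynurenic acid) and negative control.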
(Reporter assays use an easily measured gene product as a stand-in for the process of interest.)

`Cn1cc(-n2nc(-c3ccc(C(F)(F)F)cc3)cc(C(=O)NC[C@H](O)C(F)(F)F)c2=O)cn1` [Example 37, 2-(1-Methyl-1H-pyrazol-4-yl)-3-oxo-N-[(2S)-3,3,3-trifluoro-2-hydroxypropyl]-6-[4-(trifluoromethyl)phenyl]-2,3-dihydropyridazine-4-carboxamide]: the IC50 was 0.423 nM on AHR [1], 2.64 nM at AHR [2] and over 20000 nM on AHR [3].

On to `O=C(NCC(O)C(F)(F)F)c1cc(-c2ccc(Cl)cc2)nn(-c2cccnc2)c1=O` (racemic) [Example 78, 6-(4-Chlorophenyl)-3-oxo-2-(pyridin-3-yl)-N-[(2RS)-3,3,3-trifluoro-2-hydroxypropyl]-2,3-dihydropyridazine-4-carboxamide], for which the figures for the IC50 at AHR [1], at AHR [2] and at AHR [3] were 4.81 nM, 6.68 nM and over 20000 nM, respectively.

`CC(C)(O)C(NC(=O)c1cc(-c2ccc(C(F)(F)F)cc2)nn(-c2cccnc2)c1=O)C(F)(F)F` (stereo not shown) [Example 213, 3-Oxo-2-(pyridin-3-yl)-N-(1,1,1-trifluoro-3-hydroxy-3-methylbutan-2-yl)-6-[4-(trifluoromethyl)phenyl]-2,3-dihydropyridazine-4-carboxamide]: the IC50 was 1.92 nM at AHR [2] and over 20000 nM at AHR [3].

Turning to `O=C(N[C@@H]1COC[C@@H]1O)c1cc(-c2ccc(C(F)F)cc2)nn(-c2cccnc2)c1=O` (relative stereo) [Example 323, 6-[4-(Difluoromethyl)phenyl]-N-[(cis)-4-hydroxy-tetrahydrofuran-3-yl]-3-oxo-2-(pyridin-3-yl)-2,3-dihydropyridazine-4-carboxamide], the results for the IC50 on AHR [2] and on AHR [3] were 60.4 nM and over 20000 nM, respectively.

For the compound `O=C(NC(CO)CO)c1cc(-c2ccc(Cl)cc2)nn(-c2cccnc2)c1=O` [Example 70, 6-(4-Chlorophenyl)-N-(1,3-dihydroxypropan-2-yl)-3-oxo-2-(pyridin-3-yl)-2,3-dihydropyridazine-4-carboxamide], the figures for the IC50 at AHR [2] and at AHR [3] were 159 nM and over 20000 nM, respectively.

For `O=C(N[C@H]1CCCC[C@H]1O)c1cc(-c2ccc(Cl)cc2)nn(-c2ccnnc2)c1=O` [Example 164, 3-(4-Chlorophenyl)-N-[(1S,2R)-2-hydroxycyclohexyl]-6-oxo-6H-1,4′-bipyridazine-5-carboxamide], the values for the 50% inhibitory concentration (IC50) on AHR [2] and at AHR [3] were 157 nM and over 20000 nM, respectively.

Turning to `O=C(NC[C@H](O)C(F)(F)F)c1cc(-c2ccc(Cl)cc2)nn(-c2cnn(C3CCC3)c2)c1=O` [Example 40, 6-(4-Chlorophenyl)-2-(1-cyclobutyl-1H-pyrazol-4-yl)-3-oxo-N-[(2S)-3,3,3-trifluoro-2-hydroxypropyl]-2,3-dihydropyridazine-4-carboxamide], the IC50 was 1100 nM at AHR [2] and over 20000 nM on AHR [3].

In the case of `CC(C)(O)CNC(=O)c1cc(-c2ccc(Cl)cc2)nn(-c2cnoc2)c1=O` [Example 269, 6-(4-Chlorophenyl)-N-(2-hydroxy-2-methylpropyl)-2-(1,2-oxazol-4-yl)-3-oxo-2,3-dihydropyridazine-4-carboxamide], the IC50 was 61.7 nM on AHR [2] and over 20000 nM at AHR [3].

As to `N#C[C@@H](CO)NC(=O)c1cc(-c2ccc(Cl)cc2)nn(-c2cccnc2)c1=O` [Example 254, 6-(4-Chlorophenyl)-N-[(1S)-1-cyano-2-hydroxyethyl]-3-oxo-2-(pyridin-3-yl)-2,3-dihydropyridazine-4-carboxamide], the IC50 was 22.9 nM on AHR [2] and over 20000 nM on AHR [3].

As to `O=C(N[C@H](CO)C1CC1)c1cc(-c2ccc(Cl)cc2)nn(-c2cncnc2)c1=O` [Example 273, 6-(4-Chlorophenyl)-N-[(1S)-1-cyclopropyl-2-hydroxyethyl]-3-oxo-2-(pyrimidin-5-yl)-2,3-dihydropyridazine-4-carboxamide], the IC50 on AHR [2] is 101 nM; at AHR [3] it was over 20000 nM.

With `Cc1ccc(-c2cc(C(=O)NC(CO)C(C)C)c(=O)n(-c3cnn(C)c3)n2)cc1` (single isomer, unassigned) [Example 3, N-(1-Hydroxy-3-methylbutan-2-yl)-6-(4-methylphenyl)-2-(1-methyl-1H-pyrazol-4-yl)-3-oxo-2,3-dihydropyridazine-4-carboxamide], the IC50 at AHR [2] was 105 nM; on AHR [3] it was over 20000 nM.

As for `O=C(N[C@H]1COC[C@H]1O)c1cc(-c2ccc(Cl)cc2)nn(-c2cccnc2)c1=O` (racemic) [Example 171, rac-6-(4-chlorophenyl)-N-[(cis)-4-hydroxytetrahydrofuran-3-yl]-3-oxo-2-(pyridin-3-yl)-2,3-dihydropyridazine-4-carboxamide], the IC50 on AHR [2] is 58.4 nM; at AHR [3], over 20000 nM.

Turning to `C[C@H](CO)NC(=O)c1cc(-c2ccc(Cl)cc2)nn(-c2cncnc2)c1=O` [Example 279, 6-(4-Chlorophenyl)-N-[(2R)-1-hydroxypropan-2-yl]-3-oxo-2-(pyrimidin-5-yl)-2,3-dihydropyridazine-4-carboxamide], the IC50 was 168 nM at AHR [2] and over 20000 nM on AHR [3].

`O=C(NC[C@H](O)C(F)(F)F)c1cc(-c2ccc(C(F)(F)F)cc2)nn(-c2cn[nH]c2)c1=O` [Example 216, 3-Oxo-2-(1H-pyrazol-4-yl)-N-[(2S)-3,3,3-trifluoro-2-hydroxypropyl]-6-[4-(trifluoromethyl)phenyl]-2,3-dihydropyridazine-4-carboxamide]: the IC50 at AHR [2] was 2.38 nM; at AHR [3], over 20000 nM.

Regarding `CC(C)(O)C(NC(=O)c1cc(-c2ccc(Cl)cc2)nn(-c2cccnc2)c1=O)C(F)(F)F` (single isomer, unassigned; enantiomer 1) [Example 122, 6-(4-Chlorophenyl)-3-oxo-2-(pyridin-3-yl)-N-(1,1,1-trifluoro-3-hydroxy-3-methylbutan-2-yl)-2,3-dihydropyridazine-4-carboxamide, Enantiomer 1], the IC50 on AHR [2] is 26.5 nM; on AHR [3] it was over 20000 nM.

In the case of `Cn1cc(-n2nc(-c3ccc(Cl)cc3)cc(C(=O)N[C@@H](CO)C(F)(F)F)c2=O)cn1` [Example 34, (−)-6-(4-Chlorophenyl)-2-(1-methyl-1H-pyrazol-4-yl)-3-oxo-N-[(2S)-1,1,1-trifluoro-3-hydroxypropan-2-yl]-2,3-dihydropyridazine-4-carboxamide], the IC50 on AHR [2] was 130 nM; at AHR [3], over 20000 nM.

Consider `O=C(N[C@H](CO)C(F)(F)F)c1cc(-c2ccc(CF)cc2)nn(-c2cccnc2)c1=O` [Example 282, 6-[4-(Fluoromethyl)phenyl]-3-oxo-2-(pyridin-3-yl)-N-[(2R)-1,1,1-trifluoro-3-hydroxypropan-2-yl]-2,3-dihydropyridazine-4-carboxamide], for which the IC50 on AHR [2] was 304 nM; at AHR [3], over 20000 nM.

Consider `COC[C@H](CO)NC(=O)c1cc(-c2ccc(Cl)cc2)nn(-c2cccnc2)c1=O` [Example 74, (+)-6-(4-Chlorophenyl)-N-[(2S)-1-hydroxy-3-methoxypropan-2-yl]-3-oxo-2-(pyridin-3-yl)-2,3-dihydropyridazine-4-carboxamide], for which the IC50 was 152 nM on AHR [2] and over 20000 nM on AHR [3].

On to `O=C(NCC1(O)CCC1)c1cc(-c2ccc(C(F)(F)F)cc2)nn(-c2cccnc2)c1=O` [Example 189, N-[(1-Hydroxycyclobutyl)methyl]-3-oxo-2-(pyridin-3-yl)-6-[4-(trifluoromethyl)phenyl]-2,3-dihydropyridazine-4-carboxamide], for which the figures for the IC50 at AHR [2] and on AHR [3] were 3.03 nM and over 20000 nM, respectively.

Values taken from patent publication US12522594B2, “2-heteroaryl-3-oxo-2,3-dihydropyridazine-4-carboxamides for the treatment of cancer” (Deutsches Krebsforschungszentrum, priority 2017, dated 2026).
